These results are taken from patent publication US4424223A, “Polycyclic compounds containing a double bond in the D-ring pharmaceutical compositions containing them, and methods of treating psoriasis with them” (Richter Gedeon Vegyeszeti Gyar RT, priority 1981, dated 1984).

Structures can show the parent of a compound that is named as a salt.

For assay [1], the system named is phosphodiesterase isolated from cattle heart. Nature of the assay: Inhibition of phosphodiesterase isolated from cattle heart (radioisotopic, 3H-c-AMP). The class given is biochemical. The conditions noted are these: for IC50: cattle heart, read off from curve, 50% decrease of enzyme activity, read-out: I50 on phosphodiesterase. How it is done:
(§1) The model experiments were performed by means of phosphodiesterase isolated from animal tissues (rat brain, cattle brain, cattle heart). The enzyme was isolated by the technique of J. Schro/ der and H. V. Richenberg [Biochem. Biophys. Acta 302, 50 (1973)] whereupon the phosphodiesterase isolated was purified according to the method of J. G. Hardman and E. W. Sutherland [J. Biol. Chem. 240, 3704 (1965)] and the activity of the purified enzyme was measured by a radioisotopic method developed by G. Po/ ch, in the presence of an excess amount of c-AMP tricium-labeled (10.1 mmoles of a c-AMP substrate containing 2.59K Bq of 3H-c-AMP), in an incubator. The measurement was first carried out without the inhibitory substance and then in the presence of 17,18-dehydro-apivincaminol-3',4',5'-trimethoxy-benzoate as an inhibitor agent, after an incubation time of 20 minutes [N.S. Arch. Pharmacol. 268, 272 (1971)]. From the test compound a 1 mmole stock solution was prepared with aqueous hydrochloric acid solution and different amounts of the stock solution were added to the enzyme preparates corresponding to 5×10^-6, 1×10^-5 and 5×10^-5 mole/lit. of the test compound. A solution of papaverine used as reference compound is added to the enzyme preparate in an analogous manner.
(§2) The tests on an enzyme isolated from cattle brain and cattle heart, resp. were carried out in an analogous way.

Assay [2] deals with phosphodiesterase isolated from cattle brain. Nature of the assay: Inhibition of phosphodiesterase isolated from cattle brain (radioisotopic, 3H-c-AMP). The format is biochemical. The conditions noted are these: for IC50: cattle brain, read off from curve, 50% decrease of enzyme activity, read-out: I50 on phosphodiesterase. How it is done:
as §1, §2

The subject of assay [3] is psoriasis. Kind of assay: Clinical test of topical creams on patients suffering from psoriasis (plaque method). The format is in vivo, patients (human). The conditions noted are these: cream with 2% active ingredient, scale 0-3. How it is done:
The first clinical tests were carried out with preparations for topical use, e.g. ointments, creams, solutions, tinctures, pastes, aerosols, etc. containing the new compound according to the invention as an active ingredient. More particularly, creams containing 2%, 1%, 0.5%, 0.25% and […], resp. of 17,18-dehydro-apovincaminol-3',4',5'-trimethoxy-benzoate were employed.
Clinical tests were performed on patients suffering from psoriasis. During the tests the patients have not received any systemic, e.g. immunosuppressive, cytostatic or glucocorticoid treatment for their basic disease.
Groups of 5 were examined by the so-called plaque method. One side of symmetrical skin lesions was treated by a creme containing the active ingredient in the desired concentration, while on the other side a placebo was applied. The remaining psoriatic sites on the skin were subjected to other topical treatments for example with ointments containing flumethasone pivalate and salicylic acid, as active ingredient, which are widely used for the treatment of psoriasis.
The tests were started with creams having a higher active ingredient concentration and then further patients were treated with preparations containing the smallest effective active ingredient concentration.
The efficiency was evaluated upon observing three symptoms: inflammation, infiltration and desquamation (peeling). The intensity of the symptoms was qualified by scores between 0 and 3. The total number of scores served as a measure of the reduction of symptoms. The results were evaluated by methods of mathematical statistics. During the treatment undesirable side effects have never been observed.
Evaluations were made before the treatment (I), after a one-week treatment (II) and after a two-week treatment (III). The results set forth in the following table are the average number of scores (total number of scores/number of patient) for creams containing 2% of active ingredient.

Assay [4] relates to phosphodiesterase isolated from rat brain. Kind of assay: Inhibition of phosphodiesterase isolated from rat brain (radioisotopic, 3H-c-AMP). The format is biochemical. The conditions noted are these: for effect of the test compound on enzyme activity: 20 minutes incubation; for IC50: rat brain, read off from curve, 50% decrease of enzyme activity, read-out: I50 on phosphodiesterase. The procedure:
as §1
The activity of the solutions containing 17,18-dehydro-apovincaminol-3',4',5'-trimethoxy-benzoate and papaverine was expressed in percents of the control (enzyme solution without any inhibitory substance, 100%). The results obtained on an enzyme isolated from rat brain are as follows:
as §2

Assay [5] has as its system psoriasis. As to conditions: phosphodiesterase inhibitor; Voorhees et al., Arch. Derm. 104, 359 (1971); cited from earlier work.
[6] abbreviates: rat brain enzyme, 1 × 10^-5 mole/lit.
Setting [7] is: rat brain enzyme, 5 × 10^-5 mole/lit.
Where [8] appears, read: rat brain enzyme, 5 × 10^-6 mole/lit.

In the case of `CC[C@]12C=CCN3CCc4c(n(c5ccccc45)C(COC(=O)c4cc(OC)c(OC)c(OC)c4)=C1)[C@@H]32` [17,18-Dehydro-apovincaminol-3',4',5'-trimethoxy-benzoate], the “times more effective than papaverine” value in assay [1] (cattle heart enzyme, versus papaverine) was determined as 18 times; in assay [2] (cattle brain enzyme, versus papaverine) it was 6 times; in assay [4] (rat brain enzyme, versus papaverine), 7 times. Further, the “Average number of scores, Desquamation” value with psoriasis [3] (I: before the treatment) was 2.0 scores; in the assay on psoriasis [3] (II: after one-week treatment), 0.8 scores; in the assay with psoriasis [3] (III: after two-week treatment), 0.2 scores. For the same compound, the “Average number of scores, Infiltration” value in the assay with psoriasis [3] (I: before the treatment) was found to be 2.6 scores; in the assay on psoriasis [3] (II: after one-week treatment), 1.6 scores; with psoriasis [3] (III: after two-week treatment) it was 0.6 scores. Moreover, the “Average number of scores, Inflammation” value in the assay with psoriasis [3] (I: before the treatment) is given as 2.8 scores; in the assay with psoriasis [3] (II: after one-week treatment) it was 2.2 scores; with psoriasis [3] (III: after two-week treatment) it was 1.6 scores.
Turning to `CC[C@]12C=CCN3CCc4c(n(c5ccccc45)C(COC(=O)c4cc(OC)c(OC)c(OC)c4)=C1)[C@@H]32` [17,18-dehydro-apovincaminol-3',4',5'-trimethoxy-benzoate.HCl], the IC50 is 3 µM in assay [1], 15 µM in assay [2] and 10 µM in assay [4]. In addition, the “effect of the test compound on enzyme activity” value in assay [4] (setting [6]) was 40.7 % of the control; in assay [4] (setting [7]), 38.6 % of the control; in assay [4] (setting [8]), 84.7 % of the control.
For `COc1ccc(Cc2nccc3cc(OC)c(OC)cc23)cc1OC` [papaverine.HCl, papaverine, reference compound], the IC50 in assay [1] was 50 µM; in assay [2], 90 µM; in assay [4], 70 µM. Besides, the “effect of the test compound on enzyme activity” value was 89.7 % of the control in assay [4] (setting [6]), 60.5 % of the control in assay [4] (setting [7]) and 91.2 % of the control in assay [4] (setting [8]).
Take `COc1ccc(Cc2nccc3cc(OC)c(OC)cc23)cc1OC` [papaverine]: the effect on psoriasis entry in the assay with psoriasis [5] is listed as “successfully influenced psoriasis”.
